According to ChEMBL document CHEMBL5244281, “Tackling multidrug-resistant Staphylococcus aureus by natural products and their analogues acting as NorA efflux pump inhibitors” (Bioorg Med Chem, 2023):
In brackets after ≈: the same amount, converted by molar mass.

Assays:
Staphylococcus aureus [1] = test: Antibacterial activity against norfloxacin resistant Staphylococcus aureus 1199B overexpressing NorA assessed as bacterial growth inhibition incubated for 24 hrs by resazurin based microdilution assay; assay type: functional
Candida albicans [2] = test: Antifungal activity against Candida albicans NEWP031 assessed as bacterial growth inhibition incubated for 24 hrs by resazurin based microdilution assay; assay type: functional
Escherichia coli [3] = test: Antibacterial activity against Escherichia coli ATCC […] assessed as bacterial growth inhibition incubated for 24 hrs by resazurin based microdilution assay; assay type: functional
Staphylococcus aureus [4] = test: Antibacterial activity against Staphylococcus aureus 1199 assessed as bacterial growth inhibition incubated for 24 hrs by resazurin based microdilution assay; assay type: functional
Staphylococcus aureus [5] = test: Antibacterial activity against Staphylococcus aureus SA10 assessed as bacterial growth inhibition incubated for 24 hrs by resazurin based microdilution assay; assay type: functional
[6] = biological target: T1, Quinolone resistance protein NorA (Staphylococcus aureus) (UniProt P0A0J7); test: Potentiation of EtBr-induced inhibition of NorA efflux in Staphylococcus aureus 1199B overexpressing NorA assessed as reduction in EtBr MIC at 256 ug/ml incubated for 24 hrs by resazurin based assay (Rvb= 32 ug/ml); details: dose 256.0 µg/ml
T1 sequence (whole entry): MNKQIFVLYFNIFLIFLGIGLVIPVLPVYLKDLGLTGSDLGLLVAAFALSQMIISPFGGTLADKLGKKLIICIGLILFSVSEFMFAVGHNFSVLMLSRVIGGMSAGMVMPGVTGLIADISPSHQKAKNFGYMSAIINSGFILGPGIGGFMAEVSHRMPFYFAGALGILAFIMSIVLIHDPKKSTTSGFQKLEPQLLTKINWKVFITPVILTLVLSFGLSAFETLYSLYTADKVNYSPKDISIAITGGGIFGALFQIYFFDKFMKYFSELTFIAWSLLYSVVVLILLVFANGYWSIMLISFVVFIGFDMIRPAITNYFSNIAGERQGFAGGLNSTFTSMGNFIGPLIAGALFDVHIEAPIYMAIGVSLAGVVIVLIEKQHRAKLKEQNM

[7] = biological target: T1, Quinolone resistance protein NorA (Staphylococcus aureus); details: 1199B, dose 128.0 µg/ml, time 24.0 hrs
Staphylococcus aureus [8] = test: Antibacterial activity against Staphylococcus aureus ATCC 25923 assessed as bacterial growth inhibition incubated for 24 hrs by resazurin based microdilution assay; assay type: functional
Escherichia coli [9] = test: Potentiation of gentamicin-induced antibacterial activity against Escherichia coli 06 assessed as gentamicin MIC at 1/8 times of MIC (Rvb= 322 ug/ml); assay type: functional
[10] = biological target: T1, Quinolone resistance protein NorA (Staphylococcus aureus); test: Potentiation of EtBr-induced inhibition of NorA efflux pump in Staphylococcus aureus 1199B overexpressing NorA efflux pump assessed as reduction in EtBr MIC at 1/8 times of MIC by resazurin based assay (Rvb= 512 ug/ml)
Staphylococcus aureus [11] = test: Antibacterial activity against norfloxacin resistant Staphylococcus aureus 1199B overexpressing NorA assessed as bacterial growth inhibition; assay type: functional
Staphylococcus aureus [12] = test: Antibacterial activity against norfloxacin resistant Staphylococcus aureus 1199 assessed as bacterial growth inhibition; assay type: functional
Staphylococcus aureus [13] = test: Antimicrobial activity against Staphylococcus aureus ATCC 29213 assessed as bacterial growth inhibition incubated for 18 hrs by broth microdilution assay; assay type: functional
Klebsiella pneumoniae = test: Antimicrobial activity against Klebsiella pneumoniae 1213-2 assessed as bacterial growth inhibition incubated for 18 hrs by broth microdilution assay; assay type: functional
Staphylococcus aureus [14] = test: Antimicrobial activity against Staphylococcus aureus ATCC 43300 assessed as bacterial growth inhibition incubated for 18 hrs by broth microdilution assay; assay type: functional
Staphylococcus aureus [15] = test: Antimicrobial activity against Staphylococcus aureus BAA-44 assessed as bacterial growth inhibition incubated for 18 hrs by broth microdilution assay; assay type: functional
Enterococcus faecium = test: Antimicrobial activity against Enterococcus faecium ATCC 700221 assessed as bacterial growth inhibition incubated for 18 hrs by broth microdilution assay; assay type: functional
Enterococcus faecalis = test: Antimicrobial activity against Enterococcus faecalis ATCC 29212 assessed as bacterial growth inhibition incubated for 18 hrs by broth microdilution assay; assay type: functional
Escherichia coli [16] = test: Antimicrobial activity against Escherichia coli ATCC 25922 assessed as bacterial growth inhibition incubated for 18 hrs by broth microdilution assay; assay type: functional
Staphylococcus aureus [17] = test: Antibacterial activity against Staphylococcus aureus 1199B overexpressing NorA efflux protein assessed as bacterial growth inhibition incubated for 24 hrs by microdilution method; assay type: functional
[18] = biological target: T1, Quinolone resistance protein NorA (Staphylococcus aureus); details: 1199B
Staphylococcus aureus [19] = test: Antibacterial activity against wild type Staphylococcus aureus ATCC 25923 assessed as bacterial growth inhibition incubated for 24 hrs by microdilution method; assay type: functional
Candida albicans [20] = test: Antimicrobial activity against Candida albicans ATCC 10231 assessed as […] growth inhibition incubated for 24 hrs by microdilution method; assay type: functional
Escherichia coli [21] = test: Antibacterial activity against Escherichia coli ATCC 25922 assessed as bacterial growth inhibition incubated for 24 hrs by microdilution method; assay type: functional
[22] = biological target: T1, Quinolone resistance protein NorA (Staphylococcus aureus); test: Inhibition of NorA efflux pump in Staphylococcus aureus 1199B overexpressing NorA efflux pump assessed as decrease in ciprofloxacin MIC at 1/4 times MIC and measured for 45 mins in presence of ciprofloxacin by fluorimetric analysis (Rvb=8 ug/ml)
Staphylococcus aureus [23] = test: Antibacterial activity against Staphylococcus aureus K1758 with NorA knockout assessed as bacterial growth inhibition incubated for 18 hrs by broth dilution method; assay type: functional
[24] = biological target: T1, Quinolone resistance protein NorA (Staphylococcus aureus); test: Inhibition of NorA efflux pump in Staphylococcus aureus 1199B overexpressing NorA efflux pump assessed as decrease in norfloxacin MIC at 1/4 times MIC and measured for 45 mins in presence of norfloxacin by fluorimetric analysis (Rvb=32 ug/ml)
Staphylococcus aureus [25] = test: Antibacterial activity against Staphylococcus aureus 1199B overexpressing NorA efflux pump assessed as bacterial growth inhibition incubated for 18 hrs by broth dilution method; assay type: functional
[26] = biological target: T1, Quinolone resistance protein NorA (Staphylococcus aureus); test: Inhibition of NorA efflux pump in methicillin-resistant Staphylococcus aureus clinical isolate assessed as EtBr MIC using EtBr as substrate at 64 ug/ml and measured for 20 mins by spectrofluorimetric analysis (Rvb=[…] ug/ml); details: dose 64.0 µg/ml
[27] = biological target: T1, Quinolone resistance protein NorA (Staphylococcus aureus); test: Inhibition of NorA efflux pump in methicillin-resistant Staphylococcus aureus clinical isolate assessed as decrease in ciprofloxacin MIC and measured for 20 mins in presence of ciprofloxacin by spectrofluorimetric analysis (Rvb=128 ug/ml)
Staphylococcus aureus [28] = test: Synergistic antibacterial activity against methicillin-resistant Staphylococcus aureus clinical isolate assessed as fractional inhibitory concentration index in presence of ciprofloxacin by checkerboard assay; assay type: functional
Staphylococcus aureus [29] = test: Antibacterial activity against methicillin-resistant Staphylococcus aureus clinical isolate assessed as bacterial growth inhibition by broth dilution method; assay type: functional
Staphylococcus aureus [30] = test: Antibacterial activity against Staphylococcus aureus K2068 overexpressing mepA gene assessed as bacterial growth inhibition incubated for 24 hrs by resazurin based microdilution assay; assay type: functional
Staphylococcus aureus [31] = test: Antibacterial activity against Staphylococcus aureus 1199B overexpressing NorA efflux protein assessed as bacterial growth inhibition incubated for 24 hrs by resazurin based microdilution assay; assay type: functional
Staphylococcus aureus [32] = test: Antibacterial activity against wild type Staphylococcus aureus ATCC 25923 assessed as bacterial growth inhibition incubated for 24 hrs by resazurin based microdilution assay; assay type: functional
Staphylococcus aureus [33] = test: Antibacterial activity against Staphylococcus aureus RN4220 overexpressing […] efflux protein assessed as bacterial growth inhibition incubated for 24 hrs by resazurin based microdilution assay; assay type: functional
Staphylococcus aureus [34] = test: Antibacterial activity against Staphylococcus aureus K4100 overexpressing qacC gene assessed as bacterial growth inhibition incubated for 24 hrs by resazurin based microdilution assay; assay type: functional
Staphylococcus aureus [35] = test: Antibacterial activity against Staphylococcus aureus K4414 overexpressing qacA/B gene assessed as bacterial growth inhibition incubated for 24 hrs by resazurin based microdilution assay; assay type: functional
Staphylococcus aureus [36] = test: Antibacterial activity against Staphylococcus aureus IS-58 overexpressing TetK efflux protein assessed as bacterial growth inhibition incubated for 24 hrs by resazurin based microdilution assay; assay type: functional
[37] = biological target: T1, Quinolone resistance protein NorA (Staphylococcus aureus); test: Potentiation of ciprofloxacin-mediated inhibition of NorA efflux pump in Staphylococcus aureus 1199B overexpressing NorA efflux pump assessed as reduction in ciprofloxacin MIC (Rvb= […] ug/ml)

Q: With `CC(C)CCCC(C)CCO` (stereo not given) as the molecule, how does the MIC (Staphylococcus aureus [1]) read?
A: The MIC was at least 1020 µg/mL.

Q: And the MIC (Candida albicans [2])?
A: Its MIC is 2050 µg/mL (≈ 12900 µM).

Q: And the MIC (Escherichia coli [3])?
A: The MIC was 2050 µg/mL (≈ 12900 µM).

Q: And the MIC (Staphylococcus aureus [4])?
A: Its MIC is at least 1020 µg/mL.

Q: And the MIC (Staphylococcus aureus [5])?
A: Its MIC is at least 1020 µg/mL.

Q: What about the MIC [6] of the same molecule?
A: Its MIC is 16 µg/mL.

Q: And the MIC [7]?
A: Its MIC is 32 µg/mL (≈ 202 µM).

Q: What about the MIC (Staphylococcus aureus [8]) of the same molecule?
A: The MIC was at least 1020 µg/mL.

Q: Which results are given for `C[C@H]1[C@H](C)CC[C@]2(C)CC[C@]3(C)C(=CC[C@@H]4[C@@]5(C)CC[C@H](O)C(C)(C)[C@@H]5CC[C@]43C)[C@H]12`?
A: MIC (Escherichia coli [9]): 203 µg/mL; MIC [10]: 406 µg/mL

Q: With `CC1=CCC(C(C)C)CC1` (stereo not given) as the molecule, how does the MIC (Staphylococcus aureus [11]) read?
A: Its MIC is over 1020 µg/mL.

Q: What about the MIC (Staphylococcus aureus [12]) of the same molecule?
A: The MIC was over 1020 µg/mL.

Q: Which MIC (Staphylococcus aureus [13]) does the source give for `CN(CC[C@H](N)CC(=O)N[C@H]1C=C[C@H](n2ccc(N)nc2=O)O[C@@H]1C(N)=O)C(=N)N` here?
A: The MIC was 6.25 µg/mL (≈ 14.8 µM).

Q: What about the MIC (Klebsiella pneumoniae) of the same molecule?
A: The MIC was 50 µg/mL (≈ 119 µM).

Q: What about the MIC (Staphylococcus aureus [14]) of the same molecule?
A: Its MIC is 12.5 µg/mL (≈ 29.7 µM).

Q: What about the MIC (Staphylococcus aureus [15]) of the same molecule?
A: Its MIC is 12.5 µg/mL (≈ 29.7 µM).

Q: And the MIC (Enterococcus faecium)?
A: The MIC was 50 µg/mL (≈ 119 µM).

Q: What about the MIC (Enterococcus faecalis) of the same molecule?
A: Its MIC is 12.5 µg/mL (≈ 29.7 µM).

Q: And the MIC (Escherichia coli [16])?
A: The MIC was 12.5 µg/mL (≈ 29.7 µM).

Q: What does the source list for `COc1ccc(/C=C/[C@@H]2c3c(cc(O)cc3OC)C[C@H]3c4ccc(O)cc4O[C@H](c4ccccc4)[C@@H]23)cc1`?
A: MIC (Staphylococcus aureus [17]): > 1020 µg/mL; MIC [18]: 16 µg/mL (≈ 31.6 µM); MIC (Staphylococcus aureus [19]): > 1020 µg/mL; MIC (Candida albicans [20]): 161 µg/mL (≈ 318 µM); MIC (Escherichia coli [21]): > 1020 µg/mL

Q: How did the MIC [22] turn out when `O=C(/C=C/c1ccco1)N/N=C/c1ccc(Br)o1` was run?
A: Its MIC is 0.5 µg/mL.

Q: What about the MIC (Staphylococcus aureus [23]) of the same molecule?
A: The MIC was 64 µg/mL (≈ 207 µM).

Q: And the MIC [24]?
A: Its MIC is 1 µg/mL.

Q: What about the MIC (Staphylococcus aureus [25]) of the same molecule?
A: Its MIC is 64 µg/mL (≈ 207 µM).

Q: For `CCN(CC)C(=O)/C=C/c1ccc(OC(C)=O)c(OC)c1`, which MIC [26] is on record?
A: The MIC was 4 µg/mL.

Q: What about the MIC [27] of the same molecule?
A: The MIC was 32 µg/mL.

Q: And the “fractional inhibitory concentration index (FICI)” value (Staphylococcus aureus [28])?
A: Its value is 0.325.

Q: What about the MIC (Staphylococcus aureus [29]) of the same molecule?
A: Its MIC is over 125 µg/mL.

Q: Which results are given for `COc1ccc(/C=C/C(=O)c2cc(O)c(O)c(OC)c2)cc1OC`?
A: MIC (Staphylococcus aureus [30]): 100 µg/mL (≈ 303 µM); MIC [18]: 16 µg/mL (≈ 48.4 µM); MIC (Staphylococcus aureus [31]): 100 µg/mL (≈ 303 µM); MIC (Staphylococcus aureus [32]): 100 µg/mL (≈ 303 µM); MIC (Staphylococcus aureus [33]): 100 µg/mL (≈ 303 µM); MIC (Staphylococcus aureus [34]): 100 µg/mL (≈ 303 µM); MIC (Staphylococcus aureus [35]): 100 µg/mL (≈ 303 µM); MIC (Staphylococcus aureus [36]): 100 µg/mL (≈ 303 µM)

Q: `COc1cc(O)cc2c1[C@@H](/C=C/c1ccc(O)cc1)[C@@H]1[C@@H](c3ccccc3)Oc3cc(O)ccc3[C@@H]1O2` was tested. Which MIC (Staphylococcus aureus [17]) did it give?
A: Its MIC is over 1020 µg/mL.

Q: And the MIC (Staphylococcus aureus [19])?
A: The MIC was over 1020 µg/mL.

Q: And the MIC (Candida albicans [20])?
A: The MIC was over 1020 µg/mL.

Q: What about the MIC (Escherichia coli [21]) of the same molecule?
A: Its MIC is over 1020 µg/mL.

Q: With `CC(/C=C/C(=O)N1CCCC1)=C\c1ccc2c(c1)CCC(C)O2` (stereo not given) as the molecule, how does the MIC [37] read?
A: Its MIC is 3.12 µg/mL.
